Values after ≈ are worked out from the molar mass of the structure shown. Read-outs that look alike come from different tables or passages of the source.
Columns and labels:
[1] = tested on: early mature (10-week/old) F. gigantica; assay: Experimentally infected rabbits, early mature flukes; assay type: in vivo, Fasciola gigantica
Method: Nitazoxanide was tested against immature and mature Fasciola gigantica in experimentally infected rabbits. Fasciola gigantica encysted metacercariae (EMC) were collected on cellophane sheet after 28-35 days from infection of L. calludi snails by Fasciola gigantica miracidium using the technique described by […] snails were exposed daily to artificial light, for 30 minutes, in clean dechlorinated tap water. The resulting encysted […]) were preserved at 4°C in a refrigerator for 5 to 8 days under the surface of water until they were used to infect experimental animals. Forty (40) Boscat rabbits, weighting 1.5 to 2 kg each, were included in the study and allocated to two treatment groups of 20 animals. […] Ten animals from Group 2 received 35 mg of nitazoxanide, morning and evening, for 7 consecutive days 10 weeks after their infection at the mature stage of the parasite. The 10 remaining animals in Group 2 were kept as untreated controls. All animals were fed with dry ration until the end of the experiment. Seven days after administration of the last dose of nitazoxanide, all rabbits from each group were sacrificed. The surface of the liver was examined for the presence of necrotic migrating furrows especially at the immature stage of the parasite cycle. These necrotic areas were examined using two surgical needles in order to extract the juvenile migrating flukes according to the technique described by El-Bahy. The livers were sliced in small pieces especially around the migrating furrows and macerated under a microscope in order to extract the existing flukes. The abdominal cavity and the visceral surfaces were washed with warm water. The water was then collected, sieved and examined for identification of juvenile flukes. All the collected parasites as well as parts of them were counted in both treated and untreated animal in both Groups 1 and 2. […] The efficacy of nitazoxanide was calculated by using the formula indicated below: % efficacy(a - b)/(a)x 100 [formula] Where: • a = the number of flukes recovered from feces in the control animals • b = the number of flukes recovered from feces in the treated animals.

MDBKF5D2 cell monolayers = assay type: cell-based; conditions: cattle
Method: The drug was incubated on the monolayers at 37°C and 8% CO2. At 24 hours (trial 1) and 48 hours (trial 2), MTS (Owen's solution) the PMS were added to each well at concentrations of 333 µg/ml and 25 µM respectively. The plate was returned to the incubator in the dark to develop for two hours. At two hours, 100 µl of each supernatant was transferred to a new microtiter plate and read in the ELISA reader at 490nm. Results were recorded and analyzed. Percent toxicity was calculated by subtracting the mean optical density (OD) of the drug supernatants from the mean optical density (OD) of the medium control supernatants (no drug), dividing by the OD of the medium control and multiplying by 100. (OD medium - OD drug)/(OD medium)x 100 [formula]

Solubility in DMSO = assay type: physicochemical; conditions: in 1 ml DMSO
Method: Nitazoxanide (NTZ), the compound of formula (II), is the generic name for 2-(acetolyloxy)-N-(5-nitro 2-thiazoly) benzamide, a compound first synthesized by Rossignol and Cavier in 1975. 2 mg of nitazoxanide can be dissolved in 1 ml DMSO. Nitazoxanide is easily absorbed orally.

Cryptosporidium parvum [2] = assay: Experimentally infected suckling mice, oocyst shedding; assay type: in vivo
Method: The effect of nitazoxanide was tested against Cryptosporidium parvum in experimentally infected mice. Nitazoxanide was supplied by Romark Laboratories, L.C. in Tampa, Florida. The total human dose (1 g/day for 7 days i.e. 7 g) was modified for use for mice according to Paget and Barnes. The human dose was multiplied by 0.0026 for mice (weighing approximately 20 grams) to obtain he total amount of the drug needed for each host morning and evening for 7 consecutive days. […] The doses were administered by mouth using a plastic syringe equipped with around tip needle. Twenty (20) 2-day old suckling mice were infected by oral administration of 100,000 oocysts of Crytospordium parvum obtained from infected calves. Before being administered to mice, the oocysts were concentrated using a sugar solution according to the technique described by […]. Rectal swabs from each mouse were obtained and examined daily using the modified […] staining technique described by Graczyk et al. Oocysts shedding appeared in feces 2 days after the oral infection of the animals. On the third day following infection of the animals, 10 mice received 1.3 mg of nitazoxanide, morning and evening, for 7 consecutive days while the 10 remaining mice were kept as untreated controls. Rectal swabs were obtained daily for each of the 7 days of treatment and for each of the 7 days following the end of treatment. The oocysts were suspended in oil and counted per 100 fields under a microscope.

Cryptosporidium parvum [3] = assay type: in vivo
Method: An open-label study of nitazoxanide for AIDS-related cryptosporidial diarrhea documented decreased bowel movements among persons taking 500, 1000, 1500, or 2000 mg of the drug daily. […] Almost all participants had failed therapy with azithromycin or paromomycin.
By the end of the study, 8 of 11 had completely eradicated the parasite and the other three had substantial reductions in oocyst levels. There was a trend toward better response with doses of 1000 mg daily or higher and with longer therapy. Two trial participants had urticarial skin rashes; more than 90 percent adhered to the study regimen for more than four weeks.

[4] = tested on: RH strain of Toxoplasma gondii; assay: Toxoplasma gondii growth in MRC5 fibroblast cultures, ELISA; assay type: cell-based
MRC5 fibroblasts = conditions: human, 72 h
Cryptosporidium parvum [5] = assay: Preliminary clinical trial in AIDS patients with chronic cryptosporidial diarrhea; assay type: in vivo; conditions: of 16 evaluable by the eighth week, oral 500 to 2000 mg daily
Method: In a preliminary clinical trial, 30 AIDS patients with chronic cryptosporidial diarrhea were treated with oral nitazoxanide from 500 to 2000 mg daily. […] Twenty-eight people completed two or more weeks of therapy and 16 of those were evaluable for a therapeutic response by the eighth week of treatment. […] Six patients met both clinical and parasitological response criteria for benefit. Patients who received higher daily doses of drug for longer periods of time were more likely to have a positive response.

[6] = mean of 10 rabbits, 70 mg/day for 7 consecutive days
[7] = after 23 weeks, 500, 1000, 1500, or 2000 mg daily

## CC(=O)Oc1ccccc1C(=O)Nc1ncc([N+](=O)[O-])s1 [Nitazoxanide, 2-(acetolyloxy)-N-(5-nitro 2-thiazoly) benzamide]
[1]; 70 mg/day dose for 7 consecutive days
  overall efficacy: completely effective
[1]; individual rabbits No. 1-10, 35 mg morning and evening for 7 consecutive days, 10 weeks after infection
  No. of flukes extracted from liver of Treated Rabbits: 0.0
[1]; individual rabbits No. 1-10 versus untreated control, 35 mg morning and evening for 7 consecutive days
  Efficacy %: 100%
[1]; [6]
  Efficacy %, Mean (reduction): 100%
  No. of flukes extracted from liver of Treated Rabbits, Mean: 0.0
MDBKF5D2 cell monolayers; 24 h, 0.1 µg/ml
  Percent Toxicity: 19.3%
MDBKF5D2 cell monolayers; 24 h, 1 µg/ml
  Percent Toxicity: 8.3%
MDBKF5D2 cell monolayers; 24 h, 10 µg/ml
  Percent Toxicity: 65.1%
MDBKF5D2 cell monolayers; 24 h, 100 µg/ml
  Percent Toxicity: 88.1%
MDBKF5D2 cell monolayers; 48 h, 0.02 µg/ml
  Percent Toxicity: 21.23%
MDBKF5D2 cell monolayers; 48 h, 0.2 µg/ml
  Percent Toxicity: 16.56%
MDBKF5D2 cell monolayers; 48 h, 2 µg/ml
  Percent Toxicity: 24.93%
MDBKF5D2 cell monolayers; 48 h, 20 µg/ml
  Percent Toxicity: 92.87%
Solubility in DMSO
  amount that can be dissolved: 2 mg
Cryptosporidium parvum [2]; Day 7, 2.6 mg/day by mouth for 7 consecutive days, suckling mice
  oocyst shedding at the end of treatment: complete reduction of the oocyst shedding
Cryptosporidium parvum [2]; days 3 and 7 after the end of treatment
  fecal examinations after the end of treatment: negative examinations
Cryptosporidium parvum [2]; end of the third day of treatment, 2.6 mg/day by mouth for 7 consecutive days, suckling mice
  treated mice with decreased oocysts shedding: 6 of the 10
Cryptosporidium parvum [3]; [7]
  complete clinical response (one to three predominantly formed bowel movements daily): 9 of 13
  partial clinical response: 4 of 13
Cryptosporidium parvum [3]; by the end of the study
  completely eradicated the parasite: 8 of 11
Cryptosporidium parvum [3]; by the end of the study, remaining of 11
  substantial reductions in oocyst levels: three
[4]; 72 hours
  concentration with significant effect (inhibition): ≥ 0.6 mg/L
  concentrations with complete inhibition of Toxoplasma growth: ≥ 2.5 mg/L
[4]; Toxoplasma gondii, MRC5, 72 hours, estimated from regression analysis, read-out: 50% inhibitory concentration
  IC50: 1.2 µg/mL (≈ 3.91 µM)
[4]; alteration of the parasitophorous vacuole, no marked alteration of the parasite itself
  concentrations at which a marked inhibition of Toxoplasma growth could be observed: approximately 1.2 mg/L
[4]; concentration of 1.25 mg/L
  microscopic examination of the monolayer: induced cytopathic effect on the parasitized cells, with enlargement of the parasitophorous vacuole and reduction of the number of the intra-celular parasites
MRC5 fibroblasts
  concentrations with marked toxicity on the cell monolayer: ≥ 2500 ng/mL
Cryptosporidium parvum [5]
  individuals with a marked reduction or eradication of the parasite in the stool: 10
  patients who met both clinical and parasitological response criteria: Six
  people with the organism becoming undetectable: four
  persons with a 50 percent or greater reduction in daily bowel movement frequency: 12

From EP1222921B1, “Pharmaceutical compositions of tizoxanide and/or nitazoxanide” (Romark Laboratories, L.C., priority 1997, dated 1998)
